ChEMBL document CHEMBL1201862, “PubChem BioAssay data set” (2004)
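Assay format: 96-well plates, 48-hour exposure. The concentration for 50% growth inhibition is given as GI50.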 The source made the active and inactive calls. No stated cut-off is given here; in the data, active = GI50 up to about 1.1 µM and inactive = higher.

What was measured:
Experiment in all cases: inhibition of tumour cell growth, NCI panel, 48 h
OVCAR-4 = tested on: OVCAR-4
MDA-MB-231 = tested on: MDA-MB-231
786-0 = tested on: 786-0
PC-3 = tested on: PC-3
TK-10 = tested on: TK-10
A498 = tested on: A498
NCI-H226 = tested on: NCI-H226
ACHN = tested on: ACHN
UO-31 = tested on: UO-31
IGROV-1 = tested on: IGROV-1
SN12C = tested on: SN12C
HOP-62 = tested on: HOP-62
NCI-H23 = tested on: NCI-H23
MDA-MB-435 = tested on: MDA-MB-435
HL-60 = tested on: HL-60
MCF7 = tested on: MCF7
OVCAR-3 = tested on: OVCAR-3
SK-MEL-28 = tested on: SK-MEL-28
HCC 2998 = tested on: HCC 2998
UACC-257 = tested on: UACC-257

Measured: GI50

O=S1(=O)OC(c2ccc(O)cc2)(c2ccc(O)cc2)c2ccccc21 [PHENOLSULFONPHTHALEIN]
inactive: OVCAR-4 > 100 µM | MDA-MB-231 > 100 µM | 786-0 > 100 µM | PC-3 > 100 µM | TK-10 > 100 µM | A498 > 100 µM | NCI-H226 > 100 µM | ACHN > 100 µM | UO-31 > 100 µM | IGROV-1 > 100 µM | SN12C > 100 µM | HOP-62 > 100 µM | NCI-H23 > 100 µM | MDA-MB-435 > 100 µM | HL-60 > 100 µM | MCF7 > 100 µM | OVCAR-3 > 100 µM | SK-MEL-28 > 100 µM | HCC 2998 > 100 µM | UACC-257 > 100 µM
